Source: BindingDB's records for doi:10.1007/s002100000299 (University of Oslo, 2001)
Where “and” joins values, the source holds several entries; their conditions need not be identical. Equal entries are not always repeated.

These compounds were tested against 5-hydroxytryptamine receptor 4 (Homo sapiens, UniProt Q13639).
Sequence of 5-hydroxytryptamine receptor 4 (Q13639 whole entry): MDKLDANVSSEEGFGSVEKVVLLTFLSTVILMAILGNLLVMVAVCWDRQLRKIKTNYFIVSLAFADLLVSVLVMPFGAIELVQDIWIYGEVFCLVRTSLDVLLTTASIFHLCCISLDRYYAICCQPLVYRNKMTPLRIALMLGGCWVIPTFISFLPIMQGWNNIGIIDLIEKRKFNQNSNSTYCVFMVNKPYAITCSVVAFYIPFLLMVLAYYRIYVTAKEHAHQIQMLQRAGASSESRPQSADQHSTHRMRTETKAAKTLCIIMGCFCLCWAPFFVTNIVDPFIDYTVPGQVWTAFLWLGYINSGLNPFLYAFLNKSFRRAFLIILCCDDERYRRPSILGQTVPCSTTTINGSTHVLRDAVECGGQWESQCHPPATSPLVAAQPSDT
With `CN1C2CCC1CC(OC(=O)c1c[nH]c3ccccc13)C2` (stereo not given) the Ki was 158 nM and 79.4 nM.
For `O=C(OCCN1CCCCC1)c1c[nH]c2ccccc12` [CAS_135938-17-9], the Ki was 2 nM and 1.3 nM.
`Cn1cc(C(=O)OCC2CCN(CCNS(C)(=O)=O)CC2)c2ccccc21` [GR 113808] was tested, and the Ki was 0.079 nM and 0.05 nM.
`NCCc1c[nH]c2ccc(C(N)=O)cc12` [[3H]-5-carboxamidotryptamine] was tested, and the Ki was over 10000 nM.
For `COc1ccc2[nH]cc(CCN)c2c1` [tryptamine, 5-Methoxy], the Ki was 316 nM and 251 nM.
